Measurements published in publication PMC6321168, “Comparative Study on Excretive Characterization of Main Components in Herb Pair Notoginseng-Safflower and Single Herbs by LC–MS/MS” (Pharmaceutics, 2018).

Assay: Urinary excretion study in rats after oral NS, SF or CNS (LC–MS/MS)
Format: in vivo
Settings: for concentration at 2 h / concentration at 4 h / concentration at 8 h / concentration at 12 h / concentration at 24 h / concentration at 36 h / concentration at 48 h / concentration at 72 h / concentration at 96 h / concentration at 120 h / concentration at 6 h: male, Sprague Dawley, rat, urine, oral; for Accumulative excretion amount / Accumulative excretion percentage / Excretion amount: rat urine
Description: The animal room was set at constant temperature of 20 ± 2 °C with humidity of 50 ± 20% and 12/12 h light/dark cycle.
Eighteen male rats were fasted for 12 h before starting the experiment. The rats were divided into three groups at random (n = 6) and received NS (60 mg/kg), SF (50 mg/kg), and NS (60 mg/kg) + SF (50 mg/kg), respectively, by oral gavage. The rats were placed in separate metabolic cages. The urine samples were collected at 0–2, 2–4, 4–6, 6–8, 8–12, 12–24, 24–36, 36–48, 48–72, 72–96, and 96–120 h. The feces samples were collected at 0–4, 4–8, 8–12, 12–24, 24–36, 36–48, 48–72, 72–96, and 96–120 h. The urine volume was recorded and the dry feces were measured for each collection period. Samples were stored at −80 °C until analysis.
An aliquot of 200 μL urine sample was mixed with 10 μL of IS and evaporated to dryness with a ZLS-2 vacuum centrifugal concentrator (Herexi Co., Ltd., Changsha, Hunan, China). The residue was reconstituted in 100 μL of 50% methanol vortexed for 2 min and centrifuged at 12,000 rpm for 15 min. Finally, a 1 μL aliquot was injected for LC–MS analysis.
Ultra fast liquid chromatography (UFLC) analysis was performed using a Shimadzu UFLC system (DGU-20A3R Degasser; LC-20AD pump; SIL-20AXR Autosampler; CTO-20AC Column Oven) (Nakagyo-Ku, Koyoto, Japan). […] Because of the different endogenous substances in the urine and feces samples, different elution gradients were used to alleviate the matrix effects for the analytes.
The mass spectrometric detection was performed on an ABSciex 4500 Qtrap mass spectrometer (ABSciex, Foster City, CA, USA) equipped with a negative electrospray ionization (ESI) interface using multiple reaction monitoring (MRM). The MS parameters were optimized under the selected ion monitoring conditions as follows: curtain gas, 35 psi; ionspray voltage, 4500 V; turbo gas temperature, 450 °C; GS1, 45 psi; GS2, 45 psi. All data were acquired and analyzed by Analyst software (Versions 1.6.2) from ABSciex.
The accumulative excretion percentage was calculated for each analyte as follows. Excretion at time (t) = [concentration of the analyte (ng/mL) at t] × total urine (or feces) volume (mL) at t. The cumulative excretion up to time t (mg) was expressed as a percent (%) cumulative excretion by dividing by the total amount of the analyte ingested (mg): % Cumulative Excretion = 100 × (Σt excretiont) total ingested.

concentration at 2 h (60 mg/kg, oral NS 60 mg/kg, 2 h): 17 ± 39 ng/mL
concentration at 4 h (60 mg/kg, oral NS 60 mg/kg, 4 h): 33 ± 69 ng/mL
concentration at 8 h (60 mg/kg, oral NS 60 mg/kg, 8 h): 9 ± 12 ng/mL
concentration at 12 h (60 mg/kg, oral NS 60 mg/kg, 12 h): 28 ± 19 ng/mL
concentration at 24 h (60 mg/kg, oral NS 60 mg/kg, 24 h): 34 ± 63 ng/mL
concentration at 36 h (60 mg/kg, oral NS 60 mg/kg, 36 h): 17 ± 33 ng/mL
concentration at 48 h (60 mg/kg, oral NS 60 mg/kg, 48 h): 12 ± 19 ng/mL
concentration at 72 h (60 mg/kg, oral NS 60 mg/kg, 72 h): 12 ± 23 ng/mL
concentration at 96 h (60 mg/kg, oral NS 60 mg/kg, 96 h): 6 ± 10 ng/mL
concentration at 120 h (60 mg/kg, oral NS 60 mg/kg, 120 h): 3 ± 6 ng/mL
concentration at 2 h (oral CNS 110 mg/kg, 2 h): 22 ± 42 ng/mL
concentration at 4 h (oral CNS 110 mg/kg, 4 h): 9 ± 15 ng/mL
concentration at 6 h (oral CNS 110 mg/kg, 6 h): 17 ± 16 ng/mL
concentration at 8 h (oral CNS 110 mg/kg, 8 h): 38 ± 75 ng/mL
concentration at 12 h (oral CNS 110 mg/kg, 12 h): 53 ± 110 ng/mL
concentration at 24 h (oral CNS 110 mg/kg, 24 h): 315 ± 787 ng/mL
concentration at 36 h (oral CNS 110 mg/kg, 36 h): 41 ± 68 ng/mL
concentration at 48 h (oral CNS 110 mg/kg, 48 h): 30 ± 70 ng/mL
concentration at 72 h (oral CNS 110 mg/kg, 72 h): 16 ± 35 ng/mL
concentration at 96 h (oral CNS 110 mg/kg, 96 h): 16 ± 36 ng/mL
concentration at 120 h (oral CNS 110 mg/kg, 120 h): 10 ± 17 ng/mL
concentration at 6 h (oral NS 60 mg/kg, 6 h): 10 ± 18 ng/mL
Accumulative excretion amount (oral CNS 110 mg/kg, 2 h): 0.005 ± 0.005 µg
Accumulative excretion percentage (oral CNS 110 mg/kg, 2 h): 0.001±0.001%
Excretion amount (oral CNS 110 mg/kg, 2 h): 0.005 ± 0.005 µg
Accumulative excretion amount (oral CNS 110 mg/kg, 4 h): 0.009 ± 0.008 µg
Accumulative excretion percentage (oral CNS 110 mg/kg, 4 h): 0.001±0.001%
Excretion amount (oral CNS 110 mg/kg, 4 h): 0.005 ± 0.007 µg
Accumulative excretion amount (oral CNS 110 mg/kg, 6 h): 0.024 ± 0.023 µg
Accumulative excretion percentage (oral CNS 110 mg/kg, 6 h): 0.003±0.003%
Excretion amount (oral CNS 110 mg/kg, 6 h): 0.018 ± 0.018 µg
Accumulative excretion amount (oral CNS 110 mg/kg, 8 h): 0.029 ± 0.024 µg
Accumulative excretion percentage (oral CNS 110 mg/kg, 8 h): 0.004±0.003%
Excretion amount (oral CNS 110 mg/kg, 8 h): 0.010 ± 0.009 µg
Accumulative excretion amount (oral CNS 110 mg/kg, 12 h): 0.045 ± 0.040 µg
Accumulative excretion percentage (oral CNS 110 mg/kg, 12 h): 0.006±0.005%
Excretion amount (oral CNS 110 mg/kg, 12 h): 0.019 ± 0.016 µg
Accumulative excretion amount (oral CNS 110 mg/kg, 24 h): 0.103 ± 0.083 µg
Accumulative excretion percentage (oral CNS 110 mg/kg, 24 h): 0.014±0.011%
Excretion amount (oral CNS 110 mg/kg, 24 h): 0.058 ± 0.066 µg
Accumulative excretion amount (oral CNS 110 mg/kg, 36 h): 0.114 ± 0.086 µg
Accumulative excretion percentage (oral CNS 110 mg/kg, 36 h): 0.015±0.011%
Excretion amount (oral CNS 110 mg/kg, 36 h): 0.011 ± 0.009 µg
Accumulative excretion amount (oral CNS 110 mg/kg, 48 h): 0.135 ± 0.096 µg
Accumulative excretion percentage (oral CNS 110 mg/kg, 48 h): 0.018±0.013%
Excretion amount (oral CNS 110 mg/kg, 48 h): 0.021 ± 0.024 µg
Accumulative excretion amount (oral CNS 110 mg/kg, 72 h): 0.139 ± 0.098 µg
Accumulative excretion percentage (oral CNS 110 mg/kg, 72 h): 0.018±0.013%
Excretion amount (oral CNS 110 mg/kg, 72 h): 0.004 ± 0.004 µg
Accumulative excretion amount (oral CNS 110 mg/kg, 96 h): 0.144 ± 0.100 µg
Accumulative excretion percentage (oral CNS 110 mg/kg, 96 h): 0.019±0.013%
Excretion amount (oral CNS 110 mg/kg, 96 h): 0.005 ± 0.005 µg
Accumulative excretion amount (oral CNS 110 mg/kg, 120 h): 0.148 ± 0.101 µg
Accumulative excretion percentage (oral CNS 110 mg/kg, 120 h): 0.019±0.013%
Excretion amount (oral CNS 110 mg/kg, 120 h): 0.004 ± 0.004 µg
Accumulative excretion amount (oral NS 60 mg/kg, 2 h): 0.022 ± 0.025 µg
Accumulative excretion percentage (oral NS 60 mg/kg, 2 h): 0.002±0.003%
Excretion amount (oral NS 60 mg/kg, 2 h): 0.022 ± 0.025 µg
Accumulative excretion amount (oral NS 60 mg/kg, 4 h): 0.027 ± 0.029 µg
Accumulative excretion percentage (oral NS 60 mg/kg, 4 h): 0.003±0.003%
Excretion amount (oral NS 60 mg/kg, 4 h): 0.008 ± 0.003 µg
Accumulative excretion amount (oral NS 60 mg/kg, 6 h): 0.048 ± 0.039 µg
Accumulative excretion percentage (oral NS 60 mg/kg, 6 h): 0.006±0.004%
Excretion amount (oral NS 60 mg/kg, 6 h): 0.021 ± 0.020 µg
Accumulative excretion amount (oral NS 60 mg/kg, 8 h): 0.097 ± 0.129 µg
Accumulative excretion percentage (oral NS 60 mg/kg, 8 h): 0.011±0.015%
Excretion amount (oral NS 60 mg/kg, 8 h): 0.082 ± 0.123 µg
Accumulative excretion amount (oral NS 60 mg/kg, 12 h): 0.173 ± 0.206 µg
Accumulative excretion percentage (oral NS 60 mg/kg, 12 h): 0.020±0.024%
Excretion amount (oral NS 60 mg/kg, 12 h): 0.076 ± 0.083 µg
Accumulative excretion amount (oral NS 60 mg/kg, 24 h): 0.279 ± 0.198 µg
Accumulative excretion percentage (oral NS 60 mg/kg, 24 h): 0.032±0.023%
Excretion amount (oral NS 60 mg/kg, 24 h): 0.106 ± 0.109 µg
Accumulative excretion amount (oral NS 60 mg/kg, 36 h): 0.311 ± 0.182 µg
Accumulative excretion percentage (oral NS 60 mg/kg, 36 h): 0.036±0.021%
Excretion amount (oral NS 60 mg/kg, 36 h): 0.041 ± 0.012 µg
Accumulative excretion amount (oral NS 60 mg/kg, 48 h): 0.359 ± 0.187 µg
Accumulative excretion percentage (oral NS 60 mg/kg, 48 h): 0.041±0.021%
Excretion amount (oral NS 60 mg/kg, 48 h): 0.048 ± 0.045 µg
Accumulative excretion amount (oral NS 60 mg/kg, 72 h): 0.372 ± 0.200 µg
Accumulative excretion percentage (oral NS 60 mg/kg, 72 h): 0.043±0.023%
Excretion amount (oral NS 60 mg/kg, 72 h): 0.013 ± 0.018 µg
Accumulative excretion amount (oral NS 60 mg/kg, 96 h): 0.379 ± 0.211 µg
Accumulative excretion percentage (oral NS 60 mg/kg, 96 h): 0.044±0.024%
Excretion amount (oral NS 60 mg/kg, 96 h): 0.008 ± 0.013 µg
Accumulative excretion amount (oral NS 60 mg/kg, 120 h): 0.386 ± 0.221 µg
Accumulative excretion percentage (oral NS 60 mg/kg, 120 h): 0.044±0.025%
Excretion amount (oral NS 60 mg/kg, 120 h): 0.007 ± 0.012 µg
Compound: CC(C)=CCC[C@](C)(O[C@@H]1O[C@H](CO)[C@@H](O)[C@H](O)[C@H]1O)[C@H]1CC[C@]2(C)[C@@H]1[C@H](O)C[C@@H]1[C@@]3(C)CC[C@H](O[C@@H]4O[C@H](CO)[C@@H](O)[C@H](O)[C@H]4O[C@@H]4O[C@H](CO)[C@@H](O)[C@H](O)[C@H]4O)C(C)(C)[C@@H]3CC[C@]12C [ginsenoside Rd]
